Source: patent US12459917B2, “Salt of diaminopyrimidine compounds, and solid form thereof, preparation method therefor and use thereof” (BEIJING TIDE PHARMACEUTICAL CO., LTD., priority 2019, dated 2025)
In brackets after ≈: the same amount, converted by molar mass.

Experiment: Solubility test in FaSSIF at 37° C.
Type: physicochemical
Conditions: FaSSIF (Fasted State Simulated Intestinal Fluid), thermodynamic from solid
Source text: Experimental Example 3: Solubility Test

solubility at 30 min (30 min): 80 µg/mL (≈ 297 µM)
solubility at 2 h (2 h): 80 µg/mL (≈ 297 µM)
solubility at 24 h (24 h): 110 µg/mL (≈ 408 µM)
SMILES: C#Cc1cc(Oc2cnc(N)nc2N)c(C(C)C)cn1 [Free base, 5-((2-ethynyl-5-isopropylpyridin-4-yl)oxy)pyrimidine-2,4-diamine]
